Data: PubChem BioAssay (NCI)
Where “and” joins values, the source holds several entries; their conditions need not be identical. Equal values may be shown once.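 96-well plates; 48 h exposure; 5 concentrations. Endpoints by linear interpolation between flanking doses. Not reached: highest tested concentration assigned. Here, GI50 denotes the concentration required for 50% inhibition of growth. At the TGI there is no net growth.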

How the values were obtained:
Assay in all cases: NCI tumour cell line growth inhibition, 48 h
HCC-2998 colon = tested on: HCC-2998 colon
HS 578T breast = tested on: HS 578T breast
K-562 leukemia = tested on: K-562 leukemia
MDA-MB-231 breast = tested on: MDA-MB-231 breast
NCI-H522 lung = tested on: NCI-H522 lung
PC-3 prostate = tested on: PC-3 prostate
SNB-75 CNS = tested on: SNB-75 CNS
SW-620 colon = tested on: SW-620 colon
UACC-257 melanoma = tested on: UACC-257 melanoma
UACC-62 melanoma = tested on: UACC-62 melanoma

| Structure (SMILES) | TGI (HCC-2998 colon) [µM] | TGI (HS 578T breast) [µM] | TGI (K-562 leukemia) [µM] | TGI (MDA-MB-231 breast) [µM] | TGI (NCI-H522 lung) | TGI (PC-3 prostate) [µM] | TGI (SNB-75 CNS) [µM] | TGI (SW-620 colon) [µM] | TGI (UACC-257 melanoma) [µM] | TGI (UACC-62 melanoma) [µM] | GI50 (NCI-H522 lung) |
| --- | --- | --- | --- | --- | --- | --- | --- | --- | --- | --- | --- |
| C(/C=N/NC1=NCCN1)=N\NC1=NCCN1 | > 100 | > 100 | 31.6 | > 100 | > 100 µM | > 100 | > 100 | > 100 | > 100 | > 100 | – |
| O=C(O)c1cc2c(cc1S(=O)(=O)O)C1C(C3C2C2(Cl)C(Cl)=C(Cl)C3(Cl)C2(Cl)Cl)C2(Cl)C(Cl)=C(Cl)C1(Cl)C2(Cl)Cl (stereo unspecified) | 51.2 | > 100 | > 100 | 50.9 | 46.8 µM | > 100 | > 100 | > 100 | > 100 | 46.9 | – |
| N#C[C@](CO)(NC(=O)OCc1ccccc1)C(F)F | > 100 | > 100 | > 100 | > 100 | > 100 µM | > 100 | > 100 | > 100 | > 100 | > 100 | – |
| CCOC(=O)NNC1(SC)NC(=O)c2c(cc(Cl)oc2=O)O1 (stereo unspecified) | 16.1 | 12.3 | 9.07 | 25.1 | 6.26 µM | 13.2 | 22.2 | > 37 | 30.4 | 25.1 | – |
| Cc1ccc(NNc2cc(=O)[nH]c(=O)[nH]2)cc1Cl | 29.8 | > 100 | > 100 | 29.9 | 32.8 µM | > 100 | > 100 | 28.2 | 32 | > 100 | – |
| CCOC(=O)c1cc2cc(CSc3ccccc3)ccc2oc1=O | > 100 | > 100 | > 100 | > 100 | > 100 µM | > 100 | > 100 | > 100 | > 100 | > 100 | – |
| CC(C)(N=NC(C)(C)C1=NCCN1)C1=NCCN1 | > 100 | > 100 | > 100 | > 100 | > 100 µM and 60 µM | > 100 | > 100 | > 100 | > 100 | > 100 | 9.38 µM and 21.4 µM |
| Cc1ccnc2c1c(=O)c1ccccc1n2C | > 100 | 73.5 | > 100 | > 100 | 65.7 µM | > 100 | 56.3 | > 100 | > 100 | 41.4 | – |
| CNC(=O)CNC(=O)CCC(=O)N(C)C | > 100 | > 100 | > 100 | > 100 | > 100 µM | > 100 | > 100 | > 100 | > 100 | > 100 | – |
| OCC1CCCCN1Cc1nc2ccc(Cl)cc2[nH]1 (stereo unspecified) | > 100 | > 100 | > 100 | > 100 | > 100 µM | > 100 | > 100 | > 100 | > 100 | > 100 | – |
| CCC(/C=C/c1ccccc1)=N\NC(=S)N/N=C(/C=C/c1ccccc1)CC | > 100 | > 100 | 98.8 | > 100 | > 100 µM | > 100 | > 100 | > 100 | > 100 | > 100 | – |
| CCOC(=O)CC[C@@H](NC(=O)c1ccc(NCc2ccc3nc(OC)c(OC)nc3c2)cc1)C(=O)OCC | > 100 | > 80.9 | > 100 | > 100 | 50.5 µM | > 100 | 24.9 | > 100 | 31.4 | 32 | – |
| COC(=O)c1cc(C)ccc1CC(Cc1ccccc1C)C(=O)OC (stereo unspecified) | > 100 | > 100 | > 100 | > 100 | 74.1 µM | > 100 | > 100 | > 100 | 91.9 | > 100 | – |
| C#CCSc1cnc2ccccc2c1Sc1c[nH]c2ccccc2c1=O | 38.2 | > 100 | > 100 | > 100 | 29.1 µM | > 100 | 83.3 | > 100 | 64.4 | 54.1 | – |
| Cc1cc2c(cc1Cl)Sc1nnc(C)n1S2(=O)=O | 33.9 | 79.7 | 35.4 | 31.4 | 23.4 µM | 37 | 47.5 | 35 | 30.5 | 30.6 | – |
| COc1ccc2c(-c3ccc(O)cc3)c(Oc3ccccc3)c(=O)oc2c1 | > 69.3 | 99.1 | > 100 | > 100 | > 100 µM | > 100 | > 66.5 | > 100 | > 100 | > 100 | – |
| CSCCCNC(=O)c1csc([C@@H](CSC)NC(=O)CCNC(=O)[C@@H](NC(=O)OCC(Br)(Br)Br)C(C)O)n1 (stereo partly specified) | > 100 | > 100 | > 100 | > 100 | > 100 µM | > 100 | > 100 | > 100 | > 100 | > 100 | – |
| COc1ccc(C2c3cc4c(cc3OC(N3CCOCC3)C2C)OCO4)c(OC)c1 (stereo unspecified) | 14.5 | 8.22 | 25 | 32.5 | 8.95 µM | > 100 | 23.4 | 52.5 | 85.1 | 20.9 | – |
| COC(=O)c1ccc(NCC2=CC(=O)c3ccccc3C2=O)cc1 | > 63.3 | 76.4 | 32.2 | 10.3 | 42.3 µM | 27.8 | 46.8 | 54.5 | 29.4 | 27.6 | – |
| CCOC(=O)C1(Cc2ccccc2)CCN(C(=O)c2ccccc2)C2C1C2(Cl)Cl (stereo unspecified) | 30.5 | 71.5 | > 100 | 43.9 | 42.5 µM | 50.1 | 62.6 | > 100 | 36.3 | 27.2 | – |
| CC1(C)OC2CN(C(=O)OCc3ccccc3)C(CO)C2O1 (stereo unspecified) | > 100 | > 100 | > 100 | > 100 | > 100 µM | > 100 | > 100 | > 100 | > 100 | > 100 | – |
| COc1cc(/C=C2\CCc3cc(OC)c(OC)cc3C2=O)cc(OC)c1 | 15 | > 100 | > 61 | > 100 | > 42.3 µM | > 100 | > 100 | > 100 | > 100 | 18.4 | – |
| Cc1ccc(NC(=S)NNC(=O)c2cc(-c3ccccc3)nc3ccccc23)cc1C | 35.2 | > 100 | 79.5 | 57.7 | 50.8 µM | 42.9 | 56.5 | > 100 | 60.1 | 37 | – |
| CCOC(=O)/C=C/[C@H](O[Si](c1ccccc1)(c1ccccc1)c1ccccc1)C(C)(C)C | > 31.6 | > 31.6 | > 31.6 | > 31.6 | > 31.6 µM | > 31.6 | > 31.6 | > 31.6 | > 31.6 | > 31.6 | – |
| O=[N+]([O-])/C(C(Cl)=C(Cl)Cl)=C(/Sc1ccccc1)N1CCOCC1 | 29.9 | 59.5 | 3.89 | 19.8 | 9.36 µM | 14.8 | 24.4 | 6.96 | 23.6 | 14 | – |
| CNC=O | < 3980 | > 10000 | > 10000 | > 10000 | > 10000 µM | > 10000 | > 10000 | > 10000 | > 10000 | > 9810 | – |
